According to the supplement of paper PMC10307832:

Legend:
Experiment in all cases: relative viability (nuclei count vs DMSO), 5 days (fraction); higher = more cells survive
Shikonin + Bortezomib = compound: CC(C)=CC[C@@H](O)C1=CC(=O)c2c(O)ccc(O)c2C1=O [Shikonin] + CC(C)C[C@H](NC(=O)[C@H](Cc1ccccc1)NC(=O)c1cnccn1)B(O)O [Bortezomib] (partner 0.002 µM)
Summary of the method: (§1)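 Lung cancer cell lines were pin-tool dosed in 1536-well plates on the day after seeding, with either a lone drug or a fixed anchor-drug dose plus five library-drug doses (not always all listed) in √10 steps. Nuclei were counted on 4× images after 5 days. Relative viability is the ratio of treated-well to vehicle-well nuclei counts, with each value a median of duplicate plates.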

Shikonin + Vorinostat = compound: CC(C)=CC[C@@H](O)C1=CC(=O)c2c(O)ccc(O)c2C1=O [Shikonin] + O=C(CCCCCCC(=O)Nc1ccccc1)NO [Vorinostat] (partner 1 µM)
Summary of the method: as §1

[1] = compound: CC(C)N(CCCNC(=O)Nc1ccc(C(C)(C)C)cc1)C[C@H]1O[C@@H](n2ccc3c(N)ncnc32)[C@H](O)[C@@H]1O + N=C(N)NC(=N)NCCc1ccccc1 [Phenformin] (partner 250 µM)
Summary of the method: as §1

[2] = compound: CC(C)N(CCCNC(=O)Nc1ccc(C(C)(C)C)cc1)C[C@H]1O[C@@H](n2ccc3c(N)ncnc32)[C@H](O)[C@@H]1O + NC(=O)Nc1cc(-c2cccc(F)c2)sc1C(=O)N[C@H]1CCCNC1 [AZD7762] (partner 0.2 µM)
Summary of the method: as §1

Cell Line	relative viability (Shikonin + Bortezomib; first compound 0.01 µM)	relative viability (Shikonin + Bortezomib; first compound 0.1 µM)	relative viability (Shikonin + Bortezomib; first compound 0.3162 µM)	relative viability (Shikonin + Bortezomib; first compound 1 µM)	relative viability (Shikonin + Vorinostat; first compound 0.01 µM)	relative viability (Shikonin + Vorinostat; first compound 0.1 µM)	relative viability (Shikonin + Vorinostat; first compound 0.3162 µM)	relative viability (Shikonin + Vorinostat; first compound 1 µM)	relative viability ([1]; first compound 0.08 µM)	relative viability ([1]; first compound 0.253 µM)	relative viability ([1]; first compound 0.8 µM)	relative viability ([1]; first compound 2.53 µM)	relative viability ([1]; first compound 8 µM)	relative viability ([2]; first compound 0.08 µM)	relative viability ([2]; first compound 0.253 µM)	relative viability ([2]; first compound 0.8 µM)	relative viability ([2]; first compound 2.53 µM)	relative viability ([2]; first compound 8 µM)
HCC-44	0.946	0.99	0.864	0.933	1.14	1.12	1.13	1.03	0.142	0.155	0.232	0.219	0.125	1	1.1	0.897	1.04	0.929
HCC-827	1.11	1.06	1.03	1.1	0.831	0.908	1.06	0.855	0.393	0.383		0.417	0.417	0.259	0.252	0.403	0.203	0.242
NCI-H1623									0.547	0.666	0.597	0.607	0.565					
NCI-H2405	0.963	0.974	1.01	1	1.11	1.12	1.03	1.11	0.393	0.324	0.419	0.409	0.345	0.742	0.817	0.689	0.844	0.699
RERF-LC-KJ	1.08	1.19	1.28	0.986	0.709	0.836	0.718	0.757	0.384	0.378	0.422	0.386	0.395	1.09	0.954	0.867	0.981	0.84
NCI-H1651	0.986	1.06	0.948	0.928	0.553	0.617	0.57	0.636	0.34	0.302	0.295	0.288	0.35	0.545	0.562	0.468	0.46	0.457
HARA	1.16	1.24	1.16	1.24	0.546	0.51	0.468	0.605	0.458	0.413	0.388	0.425	0.363	0.344	0.244	0.334	0.655	0.299
NCI-H1650	0.269	0.212	0.191	0.171	0.41	0.499	0.485	0.483	0.311	0.424		0.429	0.473					
NCI-H1395					0.675	0.705	0.695	0.938	0.433	0.436	0.43	0.438	0.424	0.424	0.412	0.42	0.421	0.38
NCI-H520		0.699	0.48	0.689	0.8	0.718	0.717	0.681	0.606	0.342	0.353	0.655	0.618					
LU99A	1.21	1.33	1.09	1.03	0.459	0.617	0.485	0.494	0.793	0.679	0.979	0.85	0.787	0.416	0.316	0.421	0.473	0.317
NCI-H1355	1.24	1.25	1.22	1.23	0.65	0.623	0.627	0.604	0.441	0.444	0.387	0.48	0.432	0.703	0.68	0.642	0.75	0.695
HCC-78	0.572	0.474	0.607	0.552	0.505	0.472	0.514	0.415	0.804	0.611	0.682	0.641	0.717	0.613	0.519	0.583	0.576	0.64
NCI-H1563	0.824	0.909	0.757	0.607					0.67	0.627	0.626	0.666	0.697					
HCC-15	1.16	1.15	1.08	1.22	0.986	0.841	1.01	0.955	0.466	0.483	0.431	0.423	0.407	1.24	1.35		0.95	1.28
EKVX	0.995	1.81	1.28	1.18	0.634	0.711	0.831	0.925	0.229	0.241	0.223	0.228	0.202	0.7	0.716	0.702	0.767	0.621
NCI-H2126	1.16	1.23	1.1	1.19	0.806	0.757	0.841	0.819	0.523	0.529	0.52	0.534	0.496	0.913	1.01	0.956	0.988	0.965
LK-2					0.279	0.309	0.214	0.316	0.433	0.326	0.433	0.562	0.411		0.332	0.628	0.428	0.322
NCI-H1437	0.643	0.562	0.527	0.46	0.886	0.841	0.856	0.736	0.278	0.344	0.276	0.294	0.309	1.13	1.06	1.15	1.07	1.14
COR-L23	1.1	1.11	1.18	0.8	0.413	0.449	0.471	0.308	0.467	0.418	0.434	0.426	0.418					
ABC-1	0.279	0.31	0.274	0.254	1.2	1.15	1.08	0.837	0.235	0.246		0.266	0.233	0.933	0.954		1.02	0.729
NCI-H522					0.875	1	0.903	0.958	0.606	0.673	0.677	0.664	0.56	0.891	0.794	0.806	0.785	0.886
PC-3 [JPC-3]	0.824	0.894	0.837	0.868	0.845	0.792	0.781	1.3	0.478	0.491	0.495	0.451	0.488	0.759	0.81		0.794	0.872
SW 900					0.357	0.458	0.377	0.576	0.719	0.634		0.541	0.486	0.718	0.529		0.564	0.554

Cell Line	relative viability (Shikonin + Bortezomib; first compound 0.01 µM)	relative viability (Shikonin + Bortezomib; first compound 0.1 µM)	relative viability (Shikonin + Bortezomib; first compound 0.3162 µM)	relative viability (Shikonin + Bortezomib; first compound 1 µM)	relative viability (Shikonin + Vorinostat; first compound 0.01 µM)	relative viability (Shikonin + Vorinostat; first compound 0.1 µM)	relative viability (Shikonin + Vorinostat; first compound 0.3162 µM)	relative viability (Shikonin + Vorinostat; first compound 1 µM)	relative viability ([1]; first compound 0.08 µM)	relative viability ([1]; first compound 0.253 µM)	relative viability ([1]; first compound 0.8 µM)	relative viability ([1]; first compound 2.53 µM)	relative viability ([1]; first compound 8 µM)	relative viability ([2]; first compound 0.08 µM)	relative viability ([2]; first compound 0.253 µM)	relative viability ([2]; first compound 0.8 µM)	relative viability ([2]; first compound 2.53 µM)	relative viability ([2]; first compound 8 µM)
A549									0.183	0.142	0.164	0.152	0.105					
A-427	1.07	1.17	0.979	1.05	0.862	0.938	0.93	0.931	0.368	0.303	0.335	0.364	0.315	0.79	0.682	0.735	0.699	0.711
NCI-H1792	1.14	0.858	1.12	1.04					0.374		0.223	0.418	0.472	0.68		0.46	0.569	0.601
LCLC-97TM1	0.331	0.721	0.814	0.631	0.872	0.764	1.08	0.928	0.424	0.487	0.548	0.373	0.43	0.233	0.266	0.354	0.235	0.147
NCI-H1703	0.302	0.361	0.23	0.114										0.145		0.137	0.105	0.114
SK-LU-1	1.14	0.984	1.34	1.58	0.844	0.878	0.853	0.704	0.569	0.493	0.519	0.56	0.45					
COR-L 105	0.88	0.887	0.751	0.603	0.841	0.91	0.881	0.853	0.393	0.503	0.583	0.394	0.473					
Calu-6	1.1	1.2	0.878	0.674														
NCI-H2009	1.07	1.11	0.904	0.289	0.918	0.737	0.789	0.649	0.489	0.496	0.475	0.474	0.426					
SW 1573	1.12	1.39	1.06	0.955	0.739	0.94	0.536	0.306	0.262	0.403	0.435	0.391	0.378					
NCI-H358					0.999	0.67	0.856	0.573	0.291	0.303	0.383	0.286	0.273	0.454	0.538	0.569	0.565	0.491
NCI-H1944					0.521	0.521	0.673	0.55	0.223	0.195	0.199	0.188	0.198	0.678	0.415	0.537	0.559	0.575
NCI-H1648					0.351		0.672	0.509						0.656	0.812	0.525	0.645	0.707
EBC-1	0.604	0.48	0.644	0.526														
NCI-H1299	1.03	1.03	1.05	1.03														
NCI-H2342					0.872	0.722	0.78	0.764	0.574	0.553	0.499	0.532	0.493	0.454	0.535	0.455	0.505	0.397
IA-LM	0.715	0.769	1.04	0.876	1.08	0.512	1.07	1										
NCI-H661	0.835	0.818	0.734	0.769	0.837	0.833	0.812	0.736	0.28	0.27	0.276	0.288	0.305					
SK-MES-1					1.13	1.33	1.12	1.26	0.663	0.669	0.692	0.69	0.617					
NCI-H2170					0.856	0.89	0.999	0.816	0.445	0.441	0.416	0.445	0.396	0.934	0.79	0.66	0.836	0.857
NCI-H1793					0.752	0.974	0.68	0.973	0.396		0.336	0.371	0.316	0.614		0.386	0.437	0.426
NCI-H2228	0.928	0.877	1.25	0.981	0.807	0.507	0.53	0.785	0.403	0.297	0.298	0.274	0.231					
NCI-H2023	1.05	1.21	1.05	0.97	0.645	0.772	0.703	0.736	0.41	0.427	0.445	0.405	0.353					
